# Test results from patent US7998952B2, “Thiolactams and uses thereof” (Millennium Pharmaceuticals, Inc., priority 2008, dated 2011).
# Target: T1, recombinant human PLK1[2-369]T210D (Homo sapiens, UniProt P53350, T210D)
# T1 construct: recombinant human PLK1[2-369]T210D; Smt (SUMO) fusion partner (N, cleaved yes); host or cells: E. coli
# Assay: PLK1 DELFIA Kinase Assay
# Type: biochemical
# Conditions: 50 μM ATP, 2 μM peptide substrate, 0.3 nM enzyme, 90 minutes at room temperature
# Protocol: Recombinant human PLK1 was expressed in E. coli as an N-terminal Smt fusion protein using a proprietary vector (pSGX4) by Structural Genomics (SGX). The fusion partner was removed through cleavage with Ulp1 after an initial purification using a Ni2+ affinity column.
# PLK1 DELFIA® Kinase Assay
# The enzymatic reaction mixture, with or without PLK inhibitors, was incubated 90 minutes at room temperature before termination with 50 μL of STOP buffer containing 1% BSA, 0.05% Tween20, 100 mM EDTA. 50 μL of the stopped enzyme reaction mixture was transferred to a Neutravidin-coated 384-well plate (Pierce) and incubated at room temperature for 60 minutes. […] The wells were washed and then the bound europium was liberated using 50 μL of Enhancement Solution (Perkin Elmer). Quantification of europium was done using a Pherastar (BMG Labtech)
# T1 sequence (P53350 2-369 T210D): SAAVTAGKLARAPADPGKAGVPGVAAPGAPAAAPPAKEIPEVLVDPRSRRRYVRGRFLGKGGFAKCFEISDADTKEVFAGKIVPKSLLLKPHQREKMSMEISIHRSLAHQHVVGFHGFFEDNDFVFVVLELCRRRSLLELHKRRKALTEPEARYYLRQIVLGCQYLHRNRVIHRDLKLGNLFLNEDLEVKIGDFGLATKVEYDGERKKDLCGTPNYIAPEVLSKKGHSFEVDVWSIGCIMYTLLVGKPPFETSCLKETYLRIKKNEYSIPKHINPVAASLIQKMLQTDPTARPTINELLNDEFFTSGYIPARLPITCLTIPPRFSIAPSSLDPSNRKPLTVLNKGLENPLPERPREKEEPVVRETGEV
row,IC50 [nM],Structure (SMILES)
1,< 5,"Cc1ncc(CCCO)cc1Nc1ncc2c(n1)-c1ccc(C(F)(F)F)cc1NC(=S)C2 [Compound I-55, 2-{[5-(3-hydroxypropyl)-2-methylpyridin-3-yl]amino}-9-(trifluoromethyl)-5,7-dihydro-6H-pyrimido[5,4-d][1]benzazepine-6-thione]"
2,5 to 25,"Cc1nc(OC2CCN(C)CC2)ccc1Nc1ncc2c(n1)-c1ccc(Cl)cc1NC(=S)C2 [Compound I-56, 9-chloro-2-({2-methyl-6-[(1-methylpiperidin-4-yl)oxy]pyridin-3-yl}amino)-5,7-dihydro-6H-pyrimido[5,4-d][1]benzazepine-6-thione]"
3,< 5,"Cc1nc(NC(C)C)ccc1Nc1ncc2c(n1)-c1ccc(C(F)(F)F)cc1NC(=S)C2 [Compound I-57, 2-{[6-(isopropylamino)-2-methylpyridin-3-yl]amino}-9-(trifluoromethyl)-5,7-dihydro-6H-pyrimido[5,4-d][1]benzazepine-6-thione]"
4,< 5,"CCN1CCN(c2cncc(Nc3ncc4c(n3)-c3ccc(Cl)cc3NC(=S)C4)c2)C[C@H]1C [Compound I-58, 9-chloro-2-({5-[(3R)-4-ethyl-3-methylpiperazin-1-yl]pyridin-3-yl}amino)-5,7-dihydro-6H-pyrimido[5,4-d][1]benzazepine-6-thione]"
5,< 5,"Cc1ncc(CCN2CCC(N(C)C)CC2)cc1Nc1ncc2c(n1)-c1ccc(Cl)cc1NC(=S)C2 [Compound I-59, 9-chloro-2-[(5-{2-[4-(dimethylamino)piperidin-1-yl]ethyl}-2-methylpyridin-3-yl)amino]-5,7-dihydro-6H-pyrimido[5,4-d][1]benzazepine-6-thione]"
6,< 5,"Cc1ccc2c(c1)NC(=S)Cc1cnc(Nc3cc(CCCN(C)C)cnc3C)nc1-2 [Compound I-60, 2-({5-[3-(dimethylamino)propyl]-2-methylpyridin-3-yl}amino)-9-methyl-5,7-dihydro-6H-pyrimido[5,4-d][1]benzazepine-6-thione]"
7,< 5,"CN1CCN(c2ccc(Nc3ncc4c(n3)-c3ccc(C(F)(F)F)cc3NC(=S)C4)cn2)CC1 [Compound I-61, 2-{[6-(4-methylpiperazin-1-yl)pyridin-3-yl]amino}-9-(trifluoromethyl)-5,7-dihydro-6H-pyrimido[5,4-d][1]benzazepine-6-thione]"
8,< 5,"CNCCCc1cnc(C)c(Nc2ncc3c(n2)-c2ccc(C(F)(F)F)cc2NC(=S)C3)c1 [Compound I-62, 2-({2-methyl-5-[3-(methylamino)propyl]pyridin-3-yl}amino)-9-(trifluoromethyl)-5,7-dihydro-6H-pyrimido[5,4-d][1]benzazepine-6-thione]"
9,< 5,"Cc1ncc(C2CCN(C)CC2(C)C)cc1Nc1ncc2c(n1)-c1ccc(Cl)cc1NC(=S)C2 (centres unmarked) [Compound I-63, 9-chloro-2-{[2-methyl-5-(1,3,3-trimethylpiperidin-4-yl)pyridin-3-yl]amino}-5,7-dihydro-6H-pyrimido[5,4-d][1]benzazepine-6-thione]"
10,< 5,"Cc1nc(NCCN(C)C)ccc1Nc1ncc2c(n1)-c1ccc(C(F)(F)F)cc1NC(=S)C2 [Compound I-64, 2-[(6-{[2-(dimethylamino)ethyl]amino}-2-methylpyridin-3-yl)amino]-9-(trifluoromethyl)-5,7-dihydro-6H-pyrimido[5,4-d][1]benzazepine-6-thione]"
11,< 5,Cc1nc(NCC2CCN(C)CC2)ccc1Nc1ncc2c(n1)-c1ccc(C(F)(F)F)cc1NC(=S)C2 [Compound I-65]
12,< 5,"CCN1CCN(c2cnc(C)c(Nc3ncc4c(n3)-c3ccc(Cl)cc3NC(=S)C4)c2)C[C@@H]1C [Compound I-66, 9-chloro-2-({5-[(3S)-4-ethyl-3-methylpiperazin-1-yl]-2-methylpyridin-3-yl}amino)-5,7-dihydro-6H-pyrimido[5,4-d][1]benzazepine-6-thione]"
13,< 5,"Cc1nc(NC2CCNCC2)ccc1Nc1ncc2c(n1)-c1ccc(C(F)(F)F)cc1NC(=S)C2 [Compound I-67, 2-{[2-methyl-6-(piperidin-4-ylamino)pyridin-3-yl]amino}-9-(trifluoromethyl)-5,7-dihydro-6H-pyrimido[5,4-d][1]benzazepine-6-thione]"
14,< 5,"Nc1ccc(Nc2ncc3c(n2)-c2ccc(Cl)cc2NC(=S)C3)cn1 [Compound I-68, 2-[(6-aminopyridin-3-yl)amino]-9-chloro-5,7-dihydro-6H-pyrimido[5,4-d][1]benzazepine-6-thione]"
15,< 5,"Cc1nc(N2CCC(N(C)C)CC2)ccc1Nc1ncc2c(n1)-c1ccc(Cl)cc1NC(=S)C2 [Compound I-69, 9-chloro-2-({6-[4-(dimethylamino)piperidin-1-yl]-2-methylpyridin-3-yl}amino)-5,7-dihydro-6H-pyrimido[5,4-d][1]benzazepine-6-thione]"
16,5 to 25,"CN(C)CCc1cnc(C(F)(F)F)c(Nc2ncc3c(n2)-c2ccc(Cl)cc2NC(=S)C3)c1 [Compound I-70, 9-chloro-2-{[5-[2-(dimethylamino)ethyl]-2-(trifluoromethyl)pyridin-3-yl]amino}-5,7-dihydro-6H-pyrimido[5,4-d][1]benzazepine-6-thione]"
17,5 to 25,"CN(C)CCCN(C)c1ccc(Nc2ncc3c(n2)-c2ccc(Cl)cc2NC(=S)C3)cn1 [Compound I-71, 9-chloro-2-({6-[[3-(dimethylamino)propyl](methyl)amino]pyridin-3-yl}amino)-5,7-dihydro-6H-pyrimido[5,4-d][1]benzazepine-6-thione]"
18,< 5,"Cc1ncc(CCN2CCOCC2)cc1Nc1ncc2c(n1)-c1ccc(Cl)cc1NC(=S)C2 [Compound I-72, 9-chloro-2-{[2-methyl-5-(2-morpholin-4-ylethyl)pyridin-3-yl]amino}-5,7-dihydro-6H-pyrimido[5,4-d][1]benzazepine-6-thione]"
19,< 5,"Cc1nc(N2CCN(C)CC2)ccc1Nc1ncc2c(n1)-c1ccc(Cl)cc1NC(=S)C2 [Compound I-73, 9-chloro-2-{[2-methyl-6-(4-methylpiperazin-1-yl)pyridin-3-yl]amino}-5,7-dihydro-6H-pyrimido[5,4-d][1]benzazepine-6-thione]"
20,< 5,"Cc1cc(NC2CCN(C)CC2)ncc1Nc1ncc2c(n1)-c1ccc(C(F)(F)F)cc1NC(=S)C2 [Compound I-74, 2-({4-methyl-6-[(1-methylpiperidin-4-yl)amino]pyridin-3-yl}amino)-9-(trifluoromethyl)-5,7-dihydro-6H-pyrimido[5,4-d][1]benzazepine-6-thione]"
21,< 5,"Cc1nc(N(C)C2CCN(C)CC2)ccc1Nc1ncc2c(n1)-c1ccc(C(F)(F)F)cc1NC(=S)C2 [Compound I-75, 2-({2-methyl-6-[methyl(1-methylpiperidin-4-yl)amino]pyridin-3-yl}amino)-9-(trifluoromethyl)-5,7-dihydro-6H-pyrimido[5,4-d][1]benzazepine-6-thione]"
22,< 5,"Cc1nc(NCCCN(C)C)ccc1Nc1ncc2c(n1)-c1ccc(Cl)cc1NC(=S)C2 [Compound I-76, 9-chloro-2-[(6-{[3-(dimethylamino)propyl]amino}-2-methylpyridin-3-yl)amino]-5,7-dihydro-6H-pyrimido[5,4-d][1]benzazepine-6-thione]"
23,< 5,"Cc1nc(OC2CCN(C)CC2)ccc1Nc1ncc2c(n1)-c1ccc(C(F)(F)F)cc1NC(=S)C2 [Compound I-77, 2-({2-methyl-6-[(1-methylpiperidin-4-yl)oxy]pyridin-3-yl}amino)-9-(trifluoromethyl)-5,7-dihydro-6H-pyrimido[5,4-d][1]benzazepine-6-thione]"
